From patent publication US12103916B2, “Antifungal compounds” (University of Kentucky Research Foundation, priority 2016, dated 2024)
Converted amounts (≈) assume the structure as drawn. Like-named read-outs stand apart in the source and are kept apart here. One block for each compound: values may come before it.

Key:
BEAS-2B cell line = assay: Cytotoxicity assay, BEAS-2B; conditions: Ex.1 series, 15.6 μg/mL
Experimental: The positive control consisted of cells treated with Triton X-100® (TX, 12.5% v/v). The negative control consisted of cells treated with DMSO (no drug).
The positive control consisted of cells treated with Triton X-100® (TX, 20% v/v, pink). The negative control consisted of cells treated with DMSO (no drug, green). The experiments were performed in duplicate.
In vitro cytotoxicity assay.

[1] = tested on: C. albicans ATCC MYA-1003(R); assay: MIC determination, strain G; assay type: cell-based, Candida albicans; conditions: strain G, AmB; for MIC: Candida albicans
Source text: (§1) For all of our azole derivatives we report their MIC-0 values against C. albicans ATCC 10231 (strain A) and all Aspergillus strains (K-M), which correspond to complete growth inhibition of these fungi. […] The MIC values presented for these five control drugs were either tested herein or correspond to our previously published data^5, 16 as indicated in Table 1.
(§2) Antifungal activity in the absence or presence of serum.
(§3) It is important to note that all comparisons to follow will be done by using the MIC values reported in μg/mL as the data were collected that way. However, we also present in parentheses in Table 2 the corresponding values in micromolar.
(§4) In this manuscript, we performed all activity comparisons by using the MIC values reported in μg/mL (Note: the corresponding MIC values are also provided in μM into parentheses in Tables 1, 2, S1, and S2).

[2] = tested on: Candida glabrata ATCC 2001; assay: MIC determination, strain H; assay type: cell-based; conditions: strain H, AmB; for MIC: Nakaseomyces glabratus, ATCC2001
Experimental: (§5) The antifungal activity of our new azole compounds 1-9 and 24-41 was first evaluated against a panel of seven Candida albicans strains (A-G), three non-albicans Candida strains […], and three Aspergillus strains (K-M) in a concentration range of 0.03-31.2 μg/mL (Table 1). […] For all of our azole derivatives we report their MIC-0 values against C. albicans ATCC 10231 (strain A) and all Aspergillus strains (K-M), which correspond to complete growth inhibition of these fungi. […] The commercially available antifungals AmB, FLC, ITC, POS, and VOR were used as reference drugs for comparison. The MIC values presented for these five control drugs were either tested herein or correspond to our previously published data^5, 16 as indicated in Table 1.
(§6) Antifungal activity in the absence or presence of serum. The antifungal activity of the newly prepared alkylated piperazine/morpholine-azole hybrids 16-28, of intermediate 14 that we used to verify that only final compounds exert antifungal activity, as well as that of alkylated piperazine/morpholine derivatives 1-10 were first evaluated against a panel of seven C. albicans (ATCC 10231 (A), ATCC 64124(R) (B), ATCC MYA-2876(S) (C), ATCC 90819(R) (D), ATCC MYA-2310(S) (E), ATCC MYA-1237(R) (F), and ATCC MYA-1003(R) (G)), three non-albicans Candida (C. glabrata ATCC 2001 (H), C. krusei ATCC 6258 (I), and C. parapsilosis ATCC 22019 (J)), and three Aspergillus (A. flavus ATCC MYA-3631 (K), A. nidulans ATCC 38163 (L), and A. terreus ATCC MYA-3633 (M)) strains using a concentration range of 0.03-31.3 μg/mL (Table 2).
as §3, with “Commercially available antifungal agents such as AmB, CAS, FLC, and VOR were used as positive controls for comparison. […] It” for “It”
(§7) We used the commercially available antifungal agents such as AmB, caspofungin (CAS), FLC, and VOR as positive controls for comparison. For derivatives 5-16 as well as the reference drugs AmB and CAS, we reported MIC-0 values, which correspond to no visible growth. […] In this manuscript, we performed all activity comparisons by using the MIC values reported in μg/mL (Note: the corresponding MIC values are also provided in μM into parentheses in Tables 1, 2, S1, and S2).

[3] = tested on: Candida albicans ATCC 10231; assay: MIC determination, strain A; assay type: cell-based; conditions: for MIC: Candida albicans, ATCC10231
Source text: as §1, §2, §3, §4

[4] = tested on: C. albicans ATCC MYA-2876(S); assay: MIC determination, strain C; assay type: cell-based, Candida albicans; conditions: strain C, AmB; for MIC: Candida albicans
Experimental: as §5, §6
as §3, with “Commercially available antifungal agents such as AmB, CAS, FLC, and VOR were used as positive controls for comparison. […] It” for “It”
as §7

[5] = tested on: C. albicans ATCC 90819(R); assay: MIC determination, strain D; assay type: cell-based, Candida albicans; conditions: strain D, AmB; for MIC: Candida albicans, ATCC90819
Experimental: as §5, §6
as §3, with “Commercially available antifungal agents such as AmB, CAS, FLC, and VOR were used as positive controls for comparison. […] It” for “It”
as §7

C. albicans ATCC 64124 = assay: MIC determination, strain B; assay type: cell-based, Candida albicans; conditions: strain B, AmB; for MIC: Candida albicans, ATCC64124
Experimental: as §5, §6
as §3, with “Commercially available antifungal agents such as AmB, CAS, FLC, and VOR were used as positive controls for comparison. […] It” for “It”
as §7

[6] = tested on: Aspergillus terreus ATCC MYA-3633; assay: MIC determination, strain M; assay type: cell-based; conditions: for MIC: Aspergillus terreus
Source text: as §1, §2, §3, §4

[7] = tested on: C. albicans ATCC MYA-2310(S); assay: MIC determination, strain E; assay type: cell-based, Candida albicans; conditions: strain E, AmB; for MIC: Candida albicans
Experimental: as §5, §6
as §3, with “Commercially available antifungal agents such as AmB, CAS, FLC, and VOR were used as positive controls for comparison. […] It” for “It”
as §7

Candida krusei ATCC 6258 = assay: MIC determination, strain I; assay type: cell-based; conditions: strain I, AmB; for MIC: Pichia kudriavzevii, ATCC6258
Experimental: as §5, §6
as §3, with “Commercially available antifungal agents such as AmB, CAS, FLC, and VOR were used as positive controls for comparison. […] It” for “It”
as §7

[8] = tested on: C. albicans ATCC MYA-1237(R); assay: MIC determination, strain F; assay type: cell-based, Candida albicans; conditions: strain F, AmB; for MIC: Candida albicans
Source text: as §1, §2, §3, §4

[9] = tested on: Candida parapsilosis ATCC 22019; assay: MIC determination, strain J; assay type: cell-based; conditions: Lodderomyces parapsilosis, ATCC22019, Table 2, strain J, Ex.2 compounds, AmB, CAS
Experimental: as §5, §6
as §3, with “Commercially available antifungal agents such as AmB, CAS, FLC, and VOR were used as positive controls for comparison. […] It” for “It”
as §7

[10] = tested on: Aspergillus flavus ATCC MYA-3631; assay: MIC determination, strain K; assay type: cell-based; conditions: Table 2, all compounds and controls
Source text: as §1, §2, §3, §4

[11] = tested on: Aspergillus nidulans ATCC 38163; assay: MIC determination, strain L; assay type: cell-based; conditions: ATCC38163, Table 2, strain L, all compounds and controls
Source text: as §1, §2, §3, §4

[12] = Table 2, all compounds and controls
[13] = Table 2, Ex.2 compounds, CAS, read-out: MIC (MIC-0)
[14] = Table 2, Ex.2 compounds, CAS, read-out: MIC (MIC-0), in parentheses
[15] = read-out: MIC (MIC-0), in parentheses

SMILES: C[C@@H]1[C@H](O)[C@@H](C)/C=C/C=C/C=C/C=C/C=C/C=C/C=C/[C@H](O[C@@H]2O[C@H](C)[C@@H](O)[C@H](N)[C@@H]2O)C[C@@H]2O[C@](O)(C[C@@H](O)C[C@@H](O)[C@H](O)CC[C@@H](O)C[C@@H](O)CC(=O)O[C@H]1C)C[C@H](O)[C@H]2C(=O)O [AmB, amphotericin B]
- cell survival (BEAS-2B cell line): 30%
- MIC (MIC-0) ([1]; Table 1): 3.9 µg/mL (≈ 4.22 µM)
- MIC (MIC-0) ([1]; Table 2, Ex.2 compounds, CAS): 3.9 µg/mL (≈ 4.22 µM)
- MIC (MIC-0), in parentheses ([1]; Table 2, Ex.2 compounds, CAS): (4.2) micromolar
- MIC (MIC-0) ([2]; Table 1): 1.95 µg/mL (≈ 2.11 µM)
- MIC (MIC-0) ([2]; Table 2, Ex.2 compounds, CAS): 1.95 µg/mL (≈ 2.11 µM)
- MIC (MIC-0), in parentheses ([2]; Table 2, Ex.2 compounds, CAS): (2.1) micromolar
- MIC (MIC-0) ([3]; Table 1, strain A, Ex.1 compounds 1-9, 24-41 and AmB, complete growth inhibition): 3.9 µg/mL (≈ 4.22 µM)
- MIC (MIC-0) ([3]; Table 2, strain A, Ex.2 compounds 1-10, 14, 16-28, AmB, CAS, no visible growth): 3.9 µg/mL (≈ 4.22 µM)
- MIC (MIC-0), in parentheses ([3]; Table 2, strain A, Ex.2 compounds, AmB, CAS): (4.2) micromolar
- MIC, Candida albicans ATCC 10231 (A) (+10% FBS) ([3]; Table 3, Ex.2 compounds, +10% FBS): 7.8 µg/mL (≈ 8.44 µM)
- MIC, Candida albicans ATCC 10231 (A) (no FBS) ([3]; Table 3, Ex.2 compounds, no FBS): 3.9 µg/mL (≈ 4.22 µM)
- MIC (MIC-0) ([4]; Table 1): 1.95 µg/mL (≈ 2.11 µM)
- MIC (MIC-0) ([4]; Table 2, Ex.2 compounds, CAS): 1.95 µg/mL (≈ 2.11 µM)
- MIC (MIC-0), in parentheses ([4]; Table 2, Ex.2 compounds, CAS): (2.1) micromolar
- MIC (MIC-0) ([5]; Table 1): 0.975 µg/mL (≈ 1.06 µM)
- MIC (MIC-0) ([5]; Table 2, Ex.2 compounds, CAS): 0.975 µg/mL (≈ 1.06 µM)
- MIC (MIC-0), in parentheses ([5]; Table 2, Ex.2 compounds, CAS): (1.1) micromolar
- MIC (MIC-0) (C. albicans ATCC 64124; Table 1): 3.9 µg/mL (≈ 4.22 µM)
- MIC (MIC-0) (C. albicans ATCC 64124; Table 2, Ex.2 compounds, CAS): 3.9 µg/mL (≈ 4.22 µM)
- MIC (MIC-0), in parentheses (C. albicans ATCC 64124; Table 2, Ex.2 compounds, CAS): (4.2) micromolar
- MIC (MIC-0) ([6]; Table 1, Ex.1 compounds and AmB, complete growth inhibition): 3.9 µg/mL (≈ 4.22 µM)
- MIC (MIC-0) [6, 12]: 3.9 µg/mL (≈ 4.22 µM)
- MIC (MIC-0), in parentheses [6, 12]: (4.2) micromolar
- MIC (MIC-0) ([7]; Table 1): 1.95 µg/mL (≈ 2.11 µM)
- MIC (MIC-0) ([7]; Table 2, Ex.2 compounds, CAS): 1.95 µg/mL (≈ 2.11 µM)
- MIC (MIC-0), in parentheses ([7]; Table 2, Ex.2 compounds, CAS): (2.1) micromolar
- MIC (MIC-0) (Candida krusei ATCC 6258; Table 1): 3.9 µg/mL (≈ 4.22 µM)
- MIC (MIC-0) (Candida krusei ATCC 6258; Table 2, Ex.2 compounds, CAS): 3.9 µg/mL (≈ 4.22 µM)
- MIC (MIC-0), in parentheses (Candida krusei ATCC 6258; Table 2, Ex.2 compounds, CAS): (4.2) micromolar
- MIC (MIC-0) ([8]; Table 1): 3.9 µg/mL (≈ 4.22 µM)
- MIC (MIC-0) ([8]; Table 2, Ex.2 compounds, CAS): 3.9 µg/mL (≈ 4.22 µM)
- MIC (MIC-0), in parentheses ([8]; Table 2, Ex.2 compounds, CAS): (4.2) micromolar

- MIC [1, 13]: 0.48 µg/mL
- MIC [1, 14]: 0.4 µM
- MIC ([9]; read-out: MIC (MIC-0)): 1.95 µg/mL
- MIC [9, 15]: 1.6 µM
- MIC [2, 13]: 0.06 µg/mL
- MIC [2, 14]: 0.05 µM
- MIC ([3]; Table 2, strain A, Ex.2 compounds 1-10, 14, 16-28, AmB, CAS, no visible growth, read-out: MIC (MIC-0)): 0.975 µg/mL
- MIC ([3]; Table 2, strain A, Ex.2 compounds, AmB, CAS, read-out: MIC (MIC-0), in parentheses): 0.8 µM
- MIC ([10]; read-out: MIC (MIC-0)): > 31.3 µg/mL
- MIC [10, 15]: > 25.8 µM
- MIC [4, 13]: 0.06 µg/mL
- MIC [4, 14]: 0.05 µM
- MIC [5, 13]: 0.12 µg/mL
- MIC [5, 14]: 0.1 µM
- MIC (C. albicans ATCC 64124; [13]): 0.24 µg/mL
- MIC (C. albicans ATCC 64124; [14]): 0.2 µM
- MIC ([11]; read-out: MIC (MIC-0)): > 31.3 µg/mL
- MIC [11, 15]: > 25.8 µM
- MIC ([6]; Table 2, all compounds and controls, read-out: MIC (MIC-0)): > 31.3 µg/mL
- MIC ([6]; Table 2, all compounds and controls, read-out: MIC (MIC-0), in parentheses): > 25.8 µM
- MIC [7, 13]: 0.12 µg/mL
- MIC [7, 14]: 0.1 µM
- MIC (Candida krusei ATCC 6258; [13]): 0.48 µg/mL
- MIC (Candida krusei ATCC 6258; [14]): 0.4 µM
- MIC [8, 13]: 0.24 µg/mL
- MIC [8, 14]: 0.2 µM
SMILES: CC[C@H](C)C[C@H](C)CCCCCCCCC(=O)N[C@H]1C[C@@H](O)[C@@H](NCCN)NC(=O)[C@@H]2[C@@H](O)CCN2C(=O)[C@H]([C@H](O)CCN)NC(=O)[C@H]([C@H](O)[C@@H](O)c2ccc(O)cc2)NC(=O)[C@@H]2C[C@@H](O)CN2C(=O)[C@H]([C@@H](C)O)NC1=O [CAS, caspofungin]
